From patent US20090281119A1, “ACID ADDITION SALTS OF N-ETHYI-N'-[2-METHOXY-4-(5-METHYI-4-PRYIMIDIN-2-YL)PHENYL]UREA AND USES THEREOF” (Cytopia Research Pty Ltd., priority 2005, published 2009)

Assays:
[1] = hygroscopicity of the salts; type: physicochemical; conditions: crystal form / solid salt
Description: (§1) Acid addition salts of the first aspect are well-suited to pharmaceutical formulation as either solution or solid dosage forms. […] It has been shown that these particular salts are also non-hygroscopic and this remains unchanged when stored in a humid environment. The lower hygroscopicity is a further advantage for processing and storing such acid addition salts.

physchem = type: physicochemical; conditions: 24 °C; water at 24±3° C.
Description: as §1

in vivo tumour models = assay: vascular targeting activity in in vivo tumour models
tubulin = assay: inhibition of tubulin polymerisation; type: biochemical; conditions: read-out: inhibits tubulin polymerisation, IC50
Description: One pharmacologically important mechanism of inhibiting cellular proliferation is by means of binding tubulin. Tubulin is an asymmetric dimer composed of alpha and beta subunits, that polymerizes to form structural components of the cytoskeleton called microtubules. Microtubules must be highly dynamic in order to carry out many of their functions. At certain stages of the cell cycle, or in particular cell types or organelles, stable microtubules are required, such as for transport within axons or for ciliary and flagellar movement. Micro-tubules assemble during the G2 phase of the cell cycle, and participate in the formation of the mitotic spindle which facilitates the segregation of sister chromatids during the process of cell division. The essential role of microtubules in cell division and the ability of drugs that interact with tubulin to interfere with the cell cycle have made tubulin a successful target for applications that include anti-cancer drugs, fungicides, and herbicides.
The compound of formula I, and by analogy its acid addition salts, inhibits tubulin polymerisation with an IC50 of 3 μM. […] The inhibition of tubulin polymerisation makes a compound of formula I suitable for the treatment of cancer, viral and bacterial infections, vascular restenosis, inflammatory diseases, autoimmune diseases, and psoriasis.

Compound	hygroscopicity [1]	solubility (physchem) [µg/mL]	vascular targeting activity (in vivo tumour models)	IC50 (tubulin) [nM]
CCC[C@H](Nc1nc(-c2ccc(NC(=O)NCC)c(OC)c2)ncc1C)c1cccnc1.CS(=O)(=O)O.CS(=O)(=O)O [di-methanesulfonate salt, N-ethyl-N′-[2-methoxy-4-(5-methyl-4-{[(1S)-1-pyridin-3-ylbutyl]amino}pyrimidin-2-yl)phenyl]urea di-methanesulfonate salt]	not hygroscopic	> 2100	–	–
CCC[C@H](Nc1nc(-c2ccc(NC(=O)NCC)c(OC)c2)ncc1C)c1cccnc1.O=C(O)C(=O)O [mono-oxalate salt, N-ethyl-N′-[2-methoxy-4-(5-methyl-4-{[(1S)-1-pyridin-3-ylbutyl]amino}pyrimidin-2-yl)phenyl]urea mono-oxalate salt]	not hygroscopic	> 2100	–	–
CCC[C@H](Nc1nc(-c2ccc(NC(=O)NCC)c(OC)c2)ncc1C)c1cccnc1.O=C(O)CC(O)(CC(=O)O)C(=O)O [citrate salt, N-ethyl-N′-[2-methoxy-4-(5-methyl-4-{[(1S)-1-pyridin-3-ylbutyl]amino}pyrimidin-2-yl)phenyl]urea citrate salt]	not hygroscopic	> 2100	–	–
CCC[C@H](Nc1nc(-c2ccc(NC(=O)NCC)c(OC)c2)ncc1C)c1cccnc1.O=C(O)C(O)C(O)C(=O)O [tartrate salt, N-ethyl-N′-[2-methoxy-4-(5-methyl-4-{[(1S)-1-pyridin-3-ylbutyl]amino}pyrimidin-2-yl)phenyl]urea tartrate salt]	not hygroscopic	> 2100	–	–
CCC[C@H](Nc1nc(-c2ccc(NC(=O)NCC)c(OC)c2)ncc1C)c1cccnc1 [compound of formula I, N-ethyl-N′-[2-methoxy-4-(5-methyl-4-{[(1S)-1-pyridin-3-ylbutyl]amino}pyrimidin-2-yl)phenyl]urea]	–	–	displays vascular targeting activity	3000
CCC[C@H](Nc1nc(-c2ccc(NC(=O)NCC)c(OC)c2)ncc1C)c1cccnc1.Cl.Cl [dihydrochloride salt, N-ethyl-N′-[2-methoxy-4-(5-methyl-4-{[(1S)-1-pyridin-3-ylbutyl]amino}pyrimidin-2-yl)phenyl]urea dihydrochloride salt]	not hygroscopic	> 2100	–	–
